Drawing on patent US11524968B2, “Heterocyclic compound as a protein kinase inhibitor” (HK inno.N Corporation, priority 2017, dated 2022), this text covers IC50 for 23 molecules.

SMILES strings stand for the structures. pIC50: −log10 of the molar value. Bounds are passed on as bounds.

Sequence of JAK1 (P23458 whole entry): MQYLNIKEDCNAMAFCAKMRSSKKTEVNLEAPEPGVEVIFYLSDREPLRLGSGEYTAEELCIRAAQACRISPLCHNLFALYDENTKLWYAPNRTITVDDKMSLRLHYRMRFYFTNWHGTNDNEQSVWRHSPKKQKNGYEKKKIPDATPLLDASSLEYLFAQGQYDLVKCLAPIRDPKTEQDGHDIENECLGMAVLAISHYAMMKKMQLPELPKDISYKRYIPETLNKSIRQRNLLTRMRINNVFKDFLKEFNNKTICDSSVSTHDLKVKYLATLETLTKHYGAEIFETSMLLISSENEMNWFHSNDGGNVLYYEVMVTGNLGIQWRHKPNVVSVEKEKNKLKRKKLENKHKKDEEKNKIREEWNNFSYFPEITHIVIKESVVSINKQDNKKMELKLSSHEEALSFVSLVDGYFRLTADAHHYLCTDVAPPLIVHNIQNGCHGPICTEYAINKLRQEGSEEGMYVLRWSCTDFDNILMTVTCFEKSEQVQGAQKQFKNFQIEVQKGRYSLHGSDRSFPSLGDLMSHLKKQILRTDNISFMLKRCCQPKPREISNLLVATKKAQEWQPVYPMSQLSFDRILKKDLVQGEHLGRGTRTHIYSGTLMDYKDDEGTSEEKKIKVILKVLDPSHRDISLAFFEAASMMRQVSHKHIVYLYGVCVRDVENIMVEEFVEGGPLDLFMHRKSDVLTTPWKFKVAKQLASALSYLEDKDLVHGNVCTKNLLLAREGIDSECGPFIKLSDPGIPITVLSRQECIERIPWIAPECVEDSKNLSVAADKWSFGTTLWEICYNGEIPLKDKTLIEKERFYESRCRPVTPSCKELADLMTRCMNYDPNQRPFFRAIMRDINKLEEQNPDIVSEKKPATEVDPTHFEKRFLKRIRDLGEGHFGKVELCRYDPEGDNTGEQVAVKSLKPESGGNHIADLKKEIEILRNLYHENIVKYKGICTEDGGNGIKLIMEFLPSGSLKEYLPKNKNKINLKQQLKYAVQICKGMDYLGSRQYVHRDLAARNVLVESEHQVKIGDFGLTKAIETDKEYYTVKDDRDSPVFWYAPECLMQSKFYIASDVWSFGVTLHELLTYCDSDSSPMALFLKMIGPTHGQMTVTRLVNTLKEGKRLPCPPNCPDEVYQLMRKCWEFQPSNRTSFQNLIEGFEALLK

The test concerns the target JAK1 (Homo sapiens (Human), UniProt P23458). Kind of test: Analysis of JAK1 activity inhibition ability (ADP-Glo Kinase Assay). The following applies: JAK1 enzyme, ADP-Glo luminescence, ATP 250 uM, IRS-itide substrate, 30° C. 40 minutes; read-out: IC50. Type of test: biochemical. Summed up: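 ADP-Glo luminescence read-out of ADP production, with IC50 taken as the concentration halving JAK1 activity relative to control. Enzyme was incubated 40 min at 30 °C with compound, IRS-itide (40 ng/mL) and ATP (250 uM), concentrations as prepared in pH 7.5 Tris-HCl/MgCl2/BSA/DTT buffer.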
For orientation: pIC50 means the negative decadic logarithm of the IC50, by convention in mol/L. Consider `CCOC(=O)N1CCN(C(=O)Cc2ccc(-c3cc(NC(=O)C4CC4)nc4[nH]ccc34)cc2)CC1` [Example 565, ethyl 4-(2-(4-(6-(cyclopropanecarboxamido)-1H-pyrrolo[2,3-b]pyridin-4-yl)phenyl)acetyl)piperazine-1-carboxylate], for which the pIC50 is 6.70 to 7.70. Under `CCc1cc(-c2cc(NC(=O)C3CC3)nc3[nH]ccc23)cc(CC)c1NS(=O)(=O)c1ccc(F)c(F)c1` [Example 139, N-(4-(4-((3,4-difluorophenyl)sulfonamido)-3,5-diethylphenyl)-1H-pyrrolo[2,3-b]pyridin-6-yl)cyclopropanecarboxamide] stands under 6.70; under `C[C@@H]1CN(C(=O)CC2(C#N)CC2)CC=C1c1cc(NC(=O)C2CC2)nc2[nH]ccc12` [Example 415, (S)—N-(4-(1-(2-(1-cyanocyclopropyl)acetyl)-3-methyl-1,2,3,6-tetrahydropyridin-4-yl)-1H-pyrrolo[2,3-b]pyridin-6-yl)cyclopropanecarboxamide], over 7.70. To `CCS(=O)(=O)N1CC=C(c2cc(NC(=O)C3CC3)nc3[nH]ccc23)CC1` [Example 166, N-(4-(1-(ethylsulfonyl)-1,2,3,6-tetrahydropyridin-4-yl)-1H-pyrrolo[2,3-b]pyridin-6-yl)cyclopropanecarboxamide] belongs 6.70 to 7.70; to `O=C(Nc1cc(C2=CCN(CC3CC3(F)F)CC2)c2cc[nH]c2n1)C1CC1` (centres unmarked) [Example 489, N-(4-(1-((2,2-difluorocyclopropyl)methyl)-1,2,3,6-tetrahydropyridin-4-yl)-1H-pyrrolo[2,3-b]pyridin-6-yl)cyclopropanecarboxamide], 6.70 to 7.70. Turning to `CC(C)(C)OC(=O)N1CCC(c2cc(NC(=O)C3CC3)nc3[nH]ccc23)C(O)C1` (centres unmarked) [Example 655, tert-butyl 4-(6-(cyclopropanecarboxamido)-1H-pyrrolo[2,3-b]pyridin-4-yl)-3-hydroxypiperidine-1-carboxylate], the pIC50 is under 6.70. Under `O=C(Nc1nc(-c2ccc(NS(=O)(=O)c3cccc(F)c3)cc2)c2cc[nH]c2n1)C1CC1` [Example 192, N-(4-(4-((3-fluorophenyl)sulfonamido)phenyl)-7H-pyrrolo[2,3-d]pyrimidin-2-yl)cyclopropanecarboxamide] stands over 7.70; under `CCS(=O)(=O)Nc1ccc(-c2cc(NC(=O)C3CC3)nc3[nH]ccc23)cn1` [Example 148, N-(4-(6-(ethylsulfonamido)pyridin-3-yl)-1H-pyrrolo[2,3-b]pyridin-6-yl)cyclopropanecarboxamide], 6.70 to 7.70. For the molecule `COc1ccc(C(=O)N2CC=C(c3cc(NC(=O)C4CC4)nc4[nH]ccc34)C(C)C2)cc1OC` (centres unmarked) [Example 329, N-(4-(1-(3,4-dimethoxybenzoyl)-3-methyl-1,2,3,6-tetrahydropyridin-4-yl)-1H-pyrrolo[2,3-b]pyridin-6-yl)cyclopropanecarboxamide], the pIC50 was 6.70 to 7.70.

On to `O=C(Nc1cc(N2CCN(C[C@@H]3CC3(F)F)CC2)c2cc[nH]c2n1)C1CC1` [Example 699, (S)—N-(4-(4-((2,2-difluorocyclopropyl)methyl)piperazin-1-yl)-1H-pyrrolo[2,3-b]pyridin-6-yl)cyclopropanecarboxamide], for which the pIC50 was 6.70 to 7.70. Under `CS(=O)(=O)Nc1ccc(-c2nc(NC(=O)C3CC3)nc3[nH]ccc23)cc1F` [Example 201, N-(4-(3-fluoro-4-(methylsulfonamido)phenyl)-7H-pyrrolo[2,3-d]pyrimidin-2-yl)cyclopropanecarboxamide] stands under 6.70; under `CC1CN(C(=O)c2ccc(-c3ccc(F)cc3F)[nH]c2=O)CC=C1c1cc(NC(=O)C2CC2)nc2[nH]ccc12` (centres unmarked) [Example 317, N-(4-(1-(6-(2,4-difluorophenyl)-2-oxo-1,2-dihydropyridine-3-carbonyl)-3-methyl-1,2,3,6-tetrahydropyridin-4-yl)-1H-pyrrolo[2,3-b]pyridin-6-yl)cyclopropanecarboxamide], under 6.70. Under `CSc1ccccc1C(=O)N1CC=C(c2cc(NC(=O)C3CC3)nc3[nH]ccc23)C(C)C1` (centres unmarked) [Example 357, N-(4-(3-methyl-1-(2-(methylthio)benzoyl)-1,2,3,6-tetrahydropyridin-4-yl)-1H-pyrrolo[2,3-b]pyridin-6-yl)cyclopropanecarboxamide] stands 6.70 to 7.70; under `O=C(Nc1cc(-c2ccc(NS(=O)(=O)N3CCS(=O)(=O)CC3)cc2)c2cc[nH]c2n1)C1CC1` [Example 229, N-(4-(4-((1,1-dioxidothiomorpholine)-4-sulfonamido)phenyl)-1H-pyrrolo[2,3-b]pyridin-6-yl)cyclopropanecarboxamide], over 7.70.

Turning to `Cc1c(NC(=O)C2CC2)nc2[nH]ccc2c1C1=CCN(C(=O)CC#N)CC1` [Example 289, N-(4-(1-(2-cyanoacetyl)-1,2,3,6-tetrahydropyridin-4-yl)-5-methyl-1H-pyrrolo[2,3-b]pyridin-6-yl)cyclopropanecarboxamide], the pIC50 is under 6.70. To `O=C(Nc1cc(-c2ccc(OS(=O)(=O)c3ccc(F)cc3)cc2)c2cc[nH]c2n1)C1CC1` [Example 630, 4-(6-(cyclopropanecarboxamido)-1H-pyrrolo[2,3-b]pyridin-4-yl)phenyl 4-fluorobenzenesulfonate] belongs under 6.70. For `O=C(Nc1cc(-c2ccc(NC3CN(C(=O)CC(F)(F)F)C3)cc2)c2cc[nH]c2n1)C1CC1` [Example 517, N-(4-(4-((1-(3,3,3-trifluoropropanoyl)azetidin-3-yl)amino)phenyl)-1H-pyrrolo[2,3-b]pyridin-6-yl)cyclopropanecarboxamide], the pIC50 was 6.70 to 7.70.

`CC1CN(C(=O)C2(C#N)CCCC2)CC=C1c1cc(NC(=O)C2CC2)nc2[nH]ccc12` (centres unmarked) [Example 361, N-(4-(1-(1-cyanocyclopentane-1-carbonyl)-3-methyl-1,2,3,6-tetrahydropyridin-4-yl)-1H-pyrrolo[2,3-b]pyridin-6-yl)cyclopropanecarboxamide]: the pIC50 was 6.70 to 7.70. For `N#CCCCS(=O)(=O)N1C2CCC1CN(c1cc(NC(=O)C3CC3)nc3[nH]ccc13)C2` [Example 664, N-(4-(8-((3-cyanopropyl)sulfonyl)-3,8-diazabicyclo[3.2.1]octan-3-yl)-1H-pyrrolo[2,3-b]pyridin-6-yl)cyclopropanecarboxamide], the pIC50 is 6.70 to 7.70. Regarding `O=C(Nc1cc(C2=CCC(NS(=O)(=O)C3CCC3)CC2)c2cc[nH]c2n1)C1CC1` (centres unmarked) [Example 165, N-(4-(4-(cyclobutanesulfonamido)cyclohex-1-en-1-yl)-1H-pyrrolo[2,3-b]pyridin-6-yl)cyclopropanecarboxamide], the pIC50 is over 7.70. Regarding `N#CCC(=O)N1CCN(c2nc(NC(=O)C3CC3)nc3[nH]ccc23)CC1` [Example 687, N-(4-(4-(2-cyanoacetyl)piperazin-1-yl)-7H-pyrrolo[2,3-d]pyrimidin-2-yl)cyclopropanecarboxamide], the pIC50 was under 6.70. Under `O=C(Nc1cc(C2=CC3CCC(C2)N3C(=O)C2CC2)c2cc[nH]c2n1)C1CC1` (centres unmarked) [Example 256, N-(4-(8-(cyclopropanecarbonyl)-8-azabicyclo[3.2.1]oct-2-en-3-yl)-1H-pyrrolo[2,3-b]pyridin-6-yl)cyclopropanecarboxamide] stands over 7.70; under `CC(C)(C)OC(=O)N1C=C(c2cc(NC(=O)C3CC3)nc3[nH]ccc23)CCC1` [Example 459, tert-butyl 5-(6-(cyclopropanecarboxamido)-1H-pyrrolo[2,3-b]pyridin-4-yl)-3,4-dihydropyridine-1 (2H)-carboxylate], under 6.70.
